The source of these data is patent US10993938B2 (priority 2017, dated 2021).

Data set [1] deals with HIV. The data set can be described thus: microbe, parasite or virus in culture. Format: cell-based. Particulars: Human immunodeficiency virus 1, read-out: HIV (EC50) μM.
Data set [2] deals with RSV. The data set can be described thus: Virus inhibition activity assay based on cytopathic effects (neutral red), RSV. Format: cell-based. Particulars: human respiratory syncytial virus, read-out: RSV (EC50) μM.
In data set [3] the test system is H7N9. The data set can be described thus: microbe, parasite or virus in culture. Particulars: Influenza A virus, H7N9, read-out: H7N9 (EC50) μM. Format: cell-based.
The test system of data set [4] is H1N1. Put plainly: microbe, parasite or virus in culture. Format: cell-based. Particulars: Influenza A virus, H1N1, read-out: H1N1 (EC50) μM.
Data set [5] has as its system HSV. The data set can be described thus: Virus inhibition activity assay based on cytopathic effects (neutral red), HSV. Format: cell-based. Conditions: read-out: HSV (EC50) μM. For orientation: Damage to the host cells serves as the signal in cytopathic effect assays.
The nature of data set [6]: 50% toxic concentration on cell (TC50), neutral red.
For data set [7], the system named is CoxB3. The data set can be described thus: Virus inhibition activity assay based on cytopathic effects (neutral red), CoxB3. Conditions: read-out: CoxB3 (EC50) μM. Format: cell-based.
Data set [8] concerns EV71. Put plainly: Virus inhibition activity assay based on cytopathic effects (neutral red), EV71. Format: cell-based. Particulars: Enterovirus A, EV71, read-out: EV71 (EC50) μM.

A word on the EC50: it is the midpoint of the concentration-response curve. One may read the CC50 as the concentration at which the toxic effect on the cells reaches its halfway point. A higher CC50 goes with lower toxicity to the cells. On to `COC1C(=O)N(Cc2ccccc2)c2ccc(Cl)cc2C1(O)c1ccccc1` (centres unmarked) [Example 29], for which the EC50 in data set [1] was 0.05 to 5 µM; in data set [2], 0.05 to 5 µM; in data set [3], 0.05 to 5 µM; in data set [4] it was 5 to 50 µM; in data set [5], 50 to 120 µM; in data set [7], 0.05 to 5 µM. Further, in data set [8], the EC50 was 5 to 50 µM. In data set [6], this molecule came in with a CC50 of 50 to 100 µM.
